Measurements as given in patent US6194581A, “Substituted pyridines useful as modulators of acetylcholine receptors” (Merck & Co., Inc., priority 1998, dated 2001).
Where a name gives a salt, the structure may show the parent alone. Read-outs that look alike come from different tables or passages of the source.

Key:
[1] = molecular target: T1, nicotinic acetylcholine receptor (Rattus norvegicus, UniProt P09483+P12390); assay: 3H-nicotine binding/displacement, rat cerebral membranes
T1 construct: Synaptic membranes were prepared by homogenizing the cortical tissue; from tissue; host or cells: cerebral cortex synaptic membranes of male Sprague-Dawley rats
Experimental: ^3 H-Nicotine binding to rat cerebral membranes was performed according to modifications of the method of Flyn and Mash (J. Neurochem. 47:1948 (1986)). ^3 H-Nicotine (80 ci/mmol; New England Nuclear Corporation, Boston, Mass.) was used as the ligand for nicotinic acetylcholine receptor binding assays. All other reagents were purchased from the Sigma Chemical Co. (St. Louis, Mo.).
Male Sprague-Dawley rats (250-400 gm) were sacrificed by decapitation, the brains removed and the cerebral cortex dissected on ice. Synaptic membranes were prepared by homogenizing the cortical tissue in 20 volumes of ice-cold modified Tris buffer (50 mM Tris pH 7.4, 120 mM NaCl, 5 mM KCl, 2 mM EDTA, 1 mM PMSF) with a polytron (20 sec at setting 5-6) followed by centrifugation (15 min at 25,000×g) at 4° C. The resultant pellet was rehomogenized and centrifuged twice. The final pellet was resuspended in ice-cold assay buffer (50 mM Tris pH 7.4, 120 mM NaCl, 5 mM KCl, 2 mM CaCl2, 1 MM MgCl2) at a concentration of membrane equivalent to 1 gm wet weight cortex per 10 ml buffer. After protein determination the final membrane preparation was diluted with buffer to 3 mg protein/ml. This membrane preparation was used in either the fresh state or frozen (-70° C.) then thawed.
The binding assay is performed manually using 96-well plates, or using a Biomek automated work station (Beckman Instrument Co.). ^3 H-Nicotine was diluted in assay buffer to give a final concentration of 1.9 nM. The Biomek automated work station was programmed to automatically transfer 750 μl of assay buffer with ^3 H-nicotine, 230 μl of membrane preparation and 20 μl of solution containing the compound of interest in assay buffer, DMSO, ethanol:DMSO (1:1) or appropriate vehicle to the 96-well plate. Atropine was added to the incubation buffer at a final concentration of 3 μM to block binding to muscarinic acetylcholine receptor sites. The plates were maintained on ice for 60 min and the tissue-bound radioactivity was separated from the free by rapid filtration in a Brandel Harvester onto GF/C filters presoaked in 0.5% polyethyleneimine for at least 2 hr. The filters were washed with 4×2 ml of ice-cold assay buffer and filters were transferred to vials to which 4 ml of scintillation cocktail was added. The radioactivity was measured in a LS-6500 Beckman Liquid Scintillation Counter in an autodpm mode. Data were analyzed by log-logit transformation or non-linear regression analysis (e.g., employing GraphPad Prism, available from GraphPad Software, San Diego, Calif.) to give IC50 values. Non-specific binding was defined by 10 μM cytisine.

[2] = molecular target: muscarinic acetylcholine receptors; assay: 3H-QNB (quinuclidinyl benzilate) displacement, rat cerebral membranes; assay type: binding
[3] = tested on: rat olfactory tubercles (3H-dopamine release); assay type: cell-based
Experimental: (§1) Measurement of ^3 H-dopamine release from rat striatal slices was performed according to the method of Sacaan et al. (J. Neurochem. 59:245 (1992)). Male Sprague-Dawley rats (250-300 g) were decapitated and the striata or olfactory tubercles dissected quickly on a cold glass surface. The tissue was chopped to a thickness of 300 μm with a McIlwain tissue chopper. After chopping again at right angles the tissue was dispersed and incubated for 10 min. at 37° C. in oxygenated Kreb's buffer. ^3 H-Dopamine (40 Ci/mmol, NEN- Dupont, Boston, Mass.) was added (50 nM) and the tissue was incubated for 30 min. in Kreb's buffer containing 10 μM pargyline and 0.5 mM ascorbic acid. Aliquots of the minced tissue were then transferred to chambers of a Brandel Superfusion system in which the tissue was supported on Whatman GF/B filter discs. The tissue was then superfused with buffer at a constant flow rate of 0.3 ml/min by means of a Brandel peristaltic pump. The perfusate was collected in plastic scintillation vials in 3-min fractions, and the radioactivity was estimated by scintillation spectrophotometry. The superfusate for the first 120 min was discarded. After two baseline fractions had been collected, the superfusion buffer was switched to fresh buffer with or without compound of interest. At the end of the experiment the filter and the tissue were removed, and the radiolabeled neurotransmitter content was estimated after extraction into scintillation fluid. The fractional effiux of radiolabeled neurotransmitter was estimated as the amount of radioactivity in the perfusate fraction relative to the total amount in the tissue.
(§2) The results of studies of the effects of an invention compound (as compared to the effect of nicotine) on the release of neurotransmitters from rat brain slices are presented in Table II. The results presented in the Table are expressed as the percent fractional release.

[4] = tested on: rat striatal slices (3H-dopamine release); assay type: cell-based
Experimental: as §1, §2

[5] = tested on: rat hippocampus slices (3H-norepinephrine release); assay type: cell-based
Experimental: as §1
(§3) Following essentially the same procedure as set forth in the preceding paragraph, the amount of ^3 H-norepinephrine released from rat hippocampus, thalamus and prefrontal cortex slices superfused with buffer containing (or lacking) compounds of interest was also measured.
as §2

[6] = tested on: rat prefrontal cortex slices (3H-norepinephrine release); assay type: cell-based
Experimental: as §1, §3, §2

[7] = tested on: rat thalamus slices (3H-norepinephrine release); assay type: cell-based
Experimental: as §1, §3, §2

[8] = displacement of 1.9 nM 3H-nicotine, rat cerebral membranes, 3 μM atropine, read-out: IC50, Nicotine
[9] = displacement of 60 pM 3H-QNB, rat cerebral membranes
[10] = rat olfactory tubercles, compound concentration not given
[11] = rat striatum slices, compound concentration not given
[12] = rat hippocampus slices, compound concentration not given
[13] = rat prefrontal cortex slices, compound concentration not given
[14] = rat thalamus slices, compound concentration not given

T1 sequence (P09483 31-630): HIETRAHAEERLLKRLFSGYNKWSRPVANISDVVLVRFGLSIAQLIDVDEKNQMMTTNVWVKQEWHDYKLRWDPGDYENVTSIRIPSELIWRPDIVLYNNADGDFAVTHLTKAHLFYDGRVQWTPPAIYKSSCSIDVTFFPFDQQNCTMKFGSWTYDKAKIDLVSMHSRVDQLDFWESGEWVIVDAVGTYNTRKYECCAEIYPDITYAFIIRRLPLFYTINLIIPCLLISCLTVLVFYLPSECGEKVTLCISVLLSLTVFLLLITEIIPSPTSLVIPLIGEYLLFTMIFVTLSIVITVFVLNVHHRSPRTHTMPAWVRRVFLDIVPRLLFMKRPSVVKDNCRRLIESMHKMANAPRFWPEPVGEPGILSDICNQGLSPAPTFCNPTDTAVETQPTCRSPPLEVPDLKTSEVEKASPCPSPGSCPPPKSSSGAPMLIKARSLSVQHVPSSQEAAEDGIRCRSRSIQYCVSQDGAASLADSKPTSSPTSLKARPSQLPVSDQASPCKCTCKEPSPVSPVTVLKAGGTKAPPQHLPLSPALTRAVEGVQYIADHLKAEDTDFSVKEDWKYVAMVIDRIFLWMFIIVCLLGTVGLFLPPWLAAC
T1 sequence (P12390 26-500 limits assumed): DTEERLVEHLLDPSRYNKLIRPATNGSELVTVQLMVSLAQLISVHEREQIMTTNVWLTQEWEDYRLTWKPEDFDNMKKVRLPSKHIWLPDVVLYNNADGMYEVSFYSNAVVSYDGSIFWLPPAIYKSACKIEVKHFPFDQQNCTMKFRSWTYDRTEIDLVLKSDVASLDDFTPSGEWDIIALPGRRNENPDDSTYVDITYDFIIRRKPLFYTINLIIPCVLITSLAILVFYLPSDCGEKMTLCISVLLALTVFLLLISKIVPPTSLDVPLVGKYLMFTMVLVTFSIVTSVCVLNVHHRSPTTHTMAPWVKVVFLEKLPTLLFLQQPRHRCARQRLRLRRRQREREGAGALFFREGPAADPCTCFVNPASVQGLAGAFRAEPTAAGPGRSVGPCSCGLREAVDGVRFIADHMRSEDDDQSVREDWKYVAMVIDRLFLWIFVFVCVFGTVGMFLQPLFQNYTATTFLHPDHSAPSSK

Q: `Oc1ccc(-c2cncc(CN3CCCC3)c2)cc1Cl` [5-(4-Hydroxy-3-chlorophenyl)-3-(N-pyrrolidinomethyl)pyridine] was tested. Which IC50 [1, 8] did it give?
A: Its IC50 is 0.043 µM.

Q: What about the IC50 [2, 9] of the same molecule?
A: The IC50 was greater than 10 µM.

Q: And the “3H-Dopamine, Olfactory Tubercles, percent fractional release” value [3, 10]?
A: Its value is 8.75%.

Q: What about the “3H-Dopamine, Striatum, percent fractional release” value [4, 11] of the same molecule?
A: Its value is 6.00%.

Q: What about the “3H-Norepinephrine, Hippocampus, percent fractional release” value [5, 12] of the same molecule?
A: The value was 1.91%.

Q: And the “3H-Norepinephrine, Prefrontal Cortex, percent fractional release” value [6, 13]?
A: Its value is 1.82%.

Q: What about the “3H-Norepinephrine, Thalamus, percent fractional release” value [7, 14] of the same molecule?
A: Its value is 1.44%.

Q: Which IC50 [1, 8] does the source give for `Oc1ccc(-c2cncc(CN3CCCC3)c2)cc1` [5-(4-hydroxyphenyl)-3-(N-pyrrolidinomethyl)pyridine] here?
A: Its IC50 is 0.082 µM.

Q: What about the IC50 [2, 9] of the same molecule?
A: Its IC50 is greater than 10 µM.

Q: What about the “3H-Dopamine, Olfactory Tubercles, percent fractional release” value [3, 10] of the same molecule?
A: The value was 6.12%.

Q: And the “3H-Dopamine, Striatum, percent fractional release” value [4, 11]?
A: Its value is 4.32%.

Q: And the “3H-Norepinephrine, Hippocampus, percent fractional release” value [5, 12]?
A: Its value is 1.06%.

Q: And the “3H-Norepinephrine, Prefrontal Cortex, percent fractional release” value [6, 13]?
A: The value was 1.24%.

Q: What about the “3H-Norepinephrine, Thalamus, percent fractional release” value [7, 14] of the same molecule?
A: Its value is 2.36%.

Q: How did the IC50 [1, 8] turn out when `c1ccc(-c2cncc(CN3CCC3)c2)cc1` [5-Phenyl-3-(N-azetidinomethyl)pyridine fumarate] was run?
A: Its IC50 is 1.2 µM.

Q: What about the IC50 [2, 9] of the same molecule?
A: The IC50 was 6 µM.

Q: Which results are given for `c1ccc(-c2cncc(CN3CCCC3)c2)cc1` [5-Phenyl-3-(N-pyrrolidinomethyl)pyridine]?
A: IC50 [1, 8]: 0.53 µM; IC50 [2, 9]: 11.2 µM; 3H-Dopamine, Olfactory Tubercles, percent fractional release [3, 10]: 3.68%; 3H-Dopamine, Striatum, percent fractional release [4, 11]: 2.48%; 3H-Norepinephrine, Hippocampus, percent fractional release [5, 12]: 0.74%; 3H-Norepinephrine, Prefrontal Cortex, percent fractional release [6, 13]: 1.43%; 3H-Norepinephrine, Thalamus, percent fractional release [7, 14]: 1.42%

Q: What does the source list for `C#Cc1cncc(CN2CCCC2)c1` [5-ethynyl-3-(N-pyrrolidinomethyl)pyridine]?
A: IC50 [1]: 0.041 µM; IC50 [2]: > 100 µM; 3H-Dopamine, Olfactory Tubercles, percent fractional release [3, 10]: 0.91%; 3H-Dopamine, Striatum, percent fractional release [4, 11]: 2.09%; 3H-Norepinephrine, Hippocampus, percent fractional release [5, 12]: 0.97%; 3H-Norepinephrine, Prefrontal Cortex, percent fractional release [6, 13]: 0.84%; 3H-Norepinephrine, Thalamus, percent fractional release [7, 14]: 0.67%

Q: Which IC50 [1, 8] does the source give for `c1cncc(CNC2CC2)c1` [N-Cyclopropyl-3-picolylamine] here?
A: The IC50 was 40 µM.

Q: What about the IC50 [2, 9] of the same molecule?
A: The IC50 was greater than 100 µM.

Q: What does the source list for `CN(Cc1cccnc1)C1CC1` [N-Methyl-N-cyclopropyl-3-picolylamine]?
A: IC50 [1, 8]: 16 µM; IC50 [2, 9]: > 100 µM

Q: `CN(CCCc1ccccc1)Cc1cccnc1` [N-Methyl-N-phenylpropyl-3-picolylamine] was tested. Which IC50 [1, 8] did it give?
A: The IC50 was 34 µM.

Q: And the IC50 [2, 9]?
A: The IC50 was 36 µM.

Q: What does the source list for `c1ccc(CCCNCc2cccnc2)cc1` [N-Phenylpropyl-3-picolylamine]?
A: IC50 [1, 8]: 20 µM; IC50 [2, 9]: 29 µM

Q: Which results are given for `CN1CCCC1c1cccnc1` (stereo not drawn) [Nicotine, reference compound]?
A: 3H-Dopamine, Olfactory Tubercles, percent fractional release [3]: 2.7 ± 0.4; 3H-Dopamine, Striatum, percent fractional release [4]: 2.3 ± 0.7; 3H-Norepinephrine, Hippocampus, percent fractional release [5]: 8.2 ± 1.5; 3H-Norepinephrine, Prefrontal Cortex, percent fractional release [6]: 2.2 ± 0.2; 3H-Norepinephrine, Thalamus, percent fractional release [7]: 1.7

Q: How did the IC50 [1, 8] turn out when `CC(c1cccnc1)N(C)C` (stereo not drawn) [α-Methyl-N,N-dimethyl-3-picolylamine] was run?
A: Its IC50 is 1.9 µM.

Q: And the “displacement of ligand with 100 μM of compound (Quinuclidinyl benzilate)” value ([2]; 100 μM compound, 3H-QNB, rat cerebral membranes)?
A: The value was “Less than 20%”.

Q: How did the IC50 [1, 8] turn out when `CC(NC1CC1)c1cccnc1` (stereo not drawn) [α-Methyl-N-cyclopropyl-3-picolylamine] was run?
A: Its IC50 is greater than 100 µM.

Q: What about the IC50 [2, 9] of the same molecule?
A: Its IC50 is greater than 100 µM.

Q: For `CC(C)NC(C)c1cccnc1` (stereo not drawn) [α-Methyl-N-isopropyl-3-picolylamine], which IC50 [1, 8] is on record?
A: Its IC50 is 19 µM.

Q: What about the IC50 [2, 9] of the same molecule?
A: Its IC50 is greater than 100 µM.

Q: For `CNC(C)c1cccnc1` (stereo not drawn) [α-Methyl-N-methyl-3-picolylamine], which IC50 [1, 8] is on record?
A: The IC50 was 3.6 µM.

Q: And the IC50 [2, 9]?
A: The IC50 was greater than 100 µM.
